Source: patent US20220026415A1, “A METHOD FOR SCREENING A THERAPEUTIC AGENT FOR CANCER USING BINDING INHIBITOR OF CYCLIN-DEPENDENT KINASE 1 (CDK1)-CYCLIN B1 AND RETINOIC ACID RECEPTOR RESPONDER 1 (RARRES1) GENE KNOCKOUT ANIMAL MODEL” (NATIONAL CANCER CENTER, priority 2018, published 2022)
Where a SMILES comes first, the peptide text is derived from it. The star is where a group is joined. Cbz = O=C(OCc1ccccc1)*

Tests used:
CDK1 protein = assay: Amount of CDK1 protein in cells transfected with RARRES1 and CDK1, treated with protein degradation inhibitors; format: cell-based; conditions: cells transfected with RARRES1 along with CDK1
Procedure: […]
In addition, when cells were transfected with RARRES1 along with CDK1 using the method of Example 1-1, the amount of the CDK1 protein was reduced. To examine how a quantitative change in the CDK1 protein was regulated, cells were treated with protein degradation inhibitors.

[1] = tested on: embryonic epithelial cells; assay: Spheroid-formation assay with or without CDK1 inhibitor; format: cell-based, mouse
Procedure: Mouse embryo fibroblasts (MEFs) and mouse embryo epithelial cells (MEEs) were derived from 13.5-day-old embryos as previously described. That is, after removal of the head and internal organs, embryos were rinsed with phosphate buffered saline (PBS), minced, and treated with trypsin/EDTA to obtain single cells. The MEFs was resuspended in DMEM containing 10% FBS, 2 mM L-glutamine, 0.1 mM MEM nonessential amino acids, 55 uM beta-mercaptoethanol, and 100 IU/ml penicillin, and 100 ug/ml streptomycin. Cell media and reagents were obtained from GIBCO (Paisley, England). The MEEs were cultured in a D-MEM/F-12 medium containing 1% FBS, 1 mg of insulin, 1 mg of hydrocortisone, 12.5 μg of EGF, 10 mg of ascorbic acid, 10 mg of transferin, 14.1 mg of phosphoethanolamine, Na selenite, 1 μg of cholera toxin, 6.5 μg of triiodo thyronine, 35 mg of bovine pituitary extract, ethanolamine, 50 IU/ml of penicillin, and 50 ug/ml of streptomycin. The cells were incubated at 37° C. in a 5% CO2-humidified chamber. After disintegration of the embryos, plating was considered passage 0. All experiments were carried out using cells within passage 5 from three different batches. The genotypes of the MEFs and MEEs were confirmed by genotyping PCR. At least three independently generated cell lines per genotype were used.
In spheroid-formation assay, as mentioned above, advanced DMEM/F12 media used for embryonic epithelial cell culture were employed. The cells from the embryo of Rarres1^+/+ and Rarres1^−/− mice were suspended and seeded in […] with or without RO3306, CDK1 inhibitor, in a 24-well plate at a density of 2,000 or 5,000 cells per well. The size and number of spheres formed while adding 300 μl of a medium once three to four days were measured.

Rarres1 KO MEFs = assay: Nocodazole treatment of MEFs, flow cytometry, cell counting and western blotting; format: cell-based, mouse
Procedure: For analysis of cell cycles or sub-G1 DNA contents, cells were immobilized with 80% ice-cold ethanol, and stored at 4° C. The cells were stained with PBS containing 50 ug/ml of propidium iodide (PI) and 100 ug/ml of RNase A at 37° C. for 30 minutes. DNA content was analyzed by FACS Calibur flow cytometry and the results thereof were analyzed using Cellquest software (Becton-Dickinson Immunocytometry Systems, San Diego, Calif.) and Modfit LT 3.3 software. At least 10,000 cells were analyzed per sample.
Growth was examined using MEFs derived from 13.5-day-old embryos. Cells were plated on a 6-well plate at a density of 20,000 cells/well, and then the number of the cells was counted every day from the following day for 5 days. To examine cell survival in response to nocodazole, which is a cell division inhibitor, cells were treated with 50 ng/ml or 100 ng/ml of nocodazole for 48 hours and cultured. Subsequently, the cells were treated with trypsin/EDTA and detached, followed by cell counting.
It was determined whether a mitotic stress-inducing drug such as nocodazole affects Rarres1 KO MEFs. MEF cells were treated with nocodazole (50 ng/ml or 100 ng/ml) or DMSO for 48 hours, and flow cytometry and cell counting according to Example 1-10 were performed thereon.

RARRES1 expression = assay: Restoration of RARRES1 expression by DNA methylation inhibitor, RT-PCR; format: cell-based, human; conditions: for tested cell lines showing restored RARRES1 expression in a dose-dependent manner: 5, 25 and 100 uM for 5 days
Procedure: Total RNA was extracted from human cancer cell lines including prostate cancer, lung cancer, and breast cancer by using a TRIzol reagent (Invitrogen) according to the manufacturer's instructions, and 1 ug of total RNA was converted into cDNA with a Superscript® reverse transcriptase (Invitrogen). Primers used for human DNA were as follows: RARRES1-1-F ([…]), RARRES1-1-R ([…]), RARRES1-2-F ([…]), RARRES1-2-R ([…]), Cyclin B1-F ([…]), Cyclin B1-R ([…]), Actin-F ([…]), and Actin-R ([…]), and the primers respectively yielded PCR products with predicted sizes of 327 bp, 359 bp, 347 bp, and 626 bp. Primers used for mouse DNA were as follows: Rarres1-F([…]), Rarres1-R ([…]), Gapdh-F (TGCACCACCAACTGCTTA), and Gapdh-R (GGATGCAGGGATGATGTTC), and these primers respectively yielded PCR products with predicted sizes of 653 bp and 177 bp.
To determine whether promoter methylation was associated with the silencing of the RARRES1 expression in cancer cells, cells were treated with 5-aza-2′-deoxycytidine (5-aza-2-dC; 5, 25, and 100 uM) as an inhibitor of DNA methylation for 5 days.

[2] = some cancer cells (CWR22rv, T47D)

CO/C1=C\C(C)=C\[C@@H](C)[C@@H](O)[C@@H](C)C/C(C)=C/C=C/[C@H](OC)[C@@H]([C@@H](C)[C@@H](O)[C@H](C)[C@@]2(O)C[C@@H](O)[C@H](C)[C@@H](C(C)C)O2)OC1=O [BafA1, Bafilomycin A1]
amount of the CDK1 protein, which had been decreased by RARRES1 (CDK1 protein): increased again

O=C1NC(=NCc2cccs2)S/C1=C\c1ccc2ncccc2c1 [RO3306]
overall spheroid formation ([1]; RO3306-treated versus not treated, cells from Rarres1+/+ and Rarres1-/- embryos): significantly reduced | sphere formation under RO3306 ([1]; embryonic epithelial cells from Rarres1-deficient mice): formed spheres | sphere formation under RO3306 ([1]; embryonic epithelial cells of the control mice): barely formed spheres

CC(C)C[C@@H](C=O)NC(=O)[C@H](CC(C)C)NC(=O)[C@H](CC(C)C)NC(=O)OCc1ccccc1 [MG132] (Cbz-Leu-Leu-Leu-aldehyde)
amount of the CDK1 protein, which had been decreased by RARRES1 (CDK1 protein): still decreased

COC(=O)Nc1nc2ccc(C(=O)c3cccs3)cc2[nH]1 [nocodazole]
cleavage of PARP and Caspase 3 (Rarres1 KO MEFs; KO cells compared to WT cells, nocodazole treated): decreased | number of the cells after nocodazole treatment (Rarres1 KO MEFs; Rarres1-deficient MEFs versus WT MEFs, 50 or 100 ng/ml, 48 hours): less reduced | cell death induced by nocodazole (Rarres1 KO MEFs; Rarres1-deficient MEFs versus WT MEFs, 50 or 100 ng/ml, 48 hours, dose-dependent): significantly reduced

Nc1ncn([C@H]2C[C@H](O)[C@@H](CO)O2)c(=O)n1 [5-aza-2-dC, 5-aza-2′-deoxycytidine]
RARRES1 expression after treatment (RARRES1 expression; Calu3 and HCC70 cells having high mRNA levels of RARRES1): failed to have reintroduced RARRES1 expression | mRNA level of the RARRES1 gene after treatment (RARRES1 expression; JIMT-1 cells): reduced | tested cell lines showing restored RARRES1 expression in a dose-dependent manner (RARRES1 expression; breast cancer cell lines (8/10)): 80% | tested cell lines showing restored RARRES1 expression in a dose-dependent manner (RARRES1 expression; lung cancer cell lines (4/5)): 80% | tested cell lines showing restored RARRES1 expression in a dose-dependent manner (RARRES1 expression; prostate cancer cell lines (4/4)): 100% | RARRES1 isoform 1 after treatment (RARRES1 expression; [2]): increased | RARRES1 isoform 2 after treatment (RARRES1 expression; [2]): not detected
